Measurements from ChEMBL document CHEMBL4382233, “Discovery of novel arylethenesulfonyl fluorides as potential candidates against methicillin-resistant of Staphylococcus aureus (MRSA) for overcoming multidrug resistance of bacterial infections” (2019).
≈ marks a conversion by molar mass, not a printed value. Calls of active or inactive are those of the source. No cut-off for these calls is given here.

Columns and labels:
Staphylococcus aureus [1] = assay: Antibacterial activity against methicillin-resistant Staphylococcus aureus assessed as zone of inhibition at 200 ng/mL after 24 hrs by agar disc diffusion method; assay type: functional; conditions: read-out: IZ
Staphylococcus aureus [2] = assay: Induction of cellular content release in methicillin-resistant Staphylococcus aureus assessed as DNA content by measuring optical density at 260 nm at MIC after 240 mins by UV-visible spectrophotometric analysis; assay type: functional
Staphylococcus aureus [3] = assay: Antibacterial activity against methicillin-resistant Staphylococcus aureus assessed as zone of inhibition at 50 ug/mL after 24 hrs by agar disc diffusion method; assay type: functional; conditions: read-out: IZ
Staphylococcus aureus [4] = assay: Antibacterial activity against methicillin-resistant Staphylococcus aureus assessed as zone of inhibition at 800 ng/mL after 24 hrs by agar disc diffusion method; assay type: functional; conditions: read-out: IZ
Staphylococcus aureus [5] = assay: Antibiofilm activity against methicillin-resistant Staphylococcus aureus planktonic biofilm assessed as optical density at 492 nm at MIC after 24 hrs by crystal violet staining-based UV-visible spectrophotometric analysis; assay type: functional
[6] = system: Staphylococcus haemolyticus; assay: Antibacterial activity against methicillin-resistant Staphylococcus haemolyticus assessed as zone of inhibition at 50 ug/mL after 24 hrs by agar disc diffusion method; assay type: functional; conditions: read-out: IZ
Staphylococcus aureus [7] = assay: Antibiofilm activity against methicillin-resistant Staphylococcus aureus at MIC after 24 hrs by crystal violet staining-based UV-visible spectrophotometric analysis; assay type: functional, organism-based
Staphylococcus aureus [8] = assay: Antibacterial activity against methicillin-resistant Staphylococcus aureus assessed as zone of inhibition at 400 ng/mL after 24 hrs by agar disc diffusion method; assay type: functional; conditions: read-out: IZ
[9] = system: Staphylococcus epidermidis; assay: Antibacterial activity against methicillin-resistant Staphylococcus epidermidis assessed as zone of inhibition at 20 ug/mL after 24 hrs by agar disc diffusion method; assay type: functional; conditions: read-out: IZ
Staphylococcus aureus [10] = assay: Antibacterial activity against methicillin-resistant Staphylococcus aureus after overnight incubation by micro broth dilution analysis; assay type: functional
[11] = system: Staphylococcus epidermidis; assay: Antibacterial activity against methicillin-resistant Staphylococcus epidermidis after overnight incubation by micro broth dilution analysis; assay type: functional
[12] = system: Staphylococcus haemolyticus; assay: Antibacterial activity against methicillin-resistant Staphylococcus haemolyticus after overnight incubation by micro broth dilution analysis; assay type: functional
[13] = system: Staphylococcus epidermidis; assay: Antibacterial activity against methicillin-resistant Staphylococcus epidermidis assessed as zone of inhibition at 800 ng/mL after 24 hrs by agar disc diffusion method; assay type: functional; conditions: read-out: IZ
[14] = system: Staphylococcus haemolyticus; assay: Antibacterial activity against methicillin-resistant Staphylococcus haemolyticus assessed as zone of inhibition at 200 ng/mL after 24 hrs by agar disc diffusion method; assay type: functional; conditions: read-out: IZ
[15] = system: Staphylococcus epidermidis; assay: Antibacterial activity against methicillin-resistant Staphylococcus epidermidis assessed as zone of inhibition at 400 ng/mL after 24 hrs by agar disc diffusion method; assay type: functional; conditions: read-out: IZ
[16] = system: Staphylococcus haemolyticus; assay: Antibacterial activity against methicillin-resistant Staphylococcus haemolyticus assessed as zone of inhibition at 800 ng/mL after 24 hrs by agar disc diffusion method; assay type: functional; conditions: read-out: IZ
[17] = system: Staphylococcus haemolyticus; assay: Antibacterial activity against methicillin-resistant Staphylococcus haemolyticus assessed as zone of inhibition at 400 ng/mL after 24 hrs by agar disc diffusion method; assay type: functional; conditions: read-out: IZ
[18] = system: Staphylococcus epidermidis; assay: Antibacterial activity against methicillin-resistant Staphylococcus epidermidis assessed as zone of inhibition at 200 ng/mL after 24 hrs by agar disc diffusion method; assay type: functional; conditions: read-out: IZ
Staphylococcus aureus [19] = assay: Antibiofilm activity against methicillin-resistant Staphylococcus aureus at 2 times MIC after 24 hrs by crystal violet staining-based UV-visible spectrophotometric analysis; assay type: functional, organism-based

SMILES | zone of inhibition at 0.2 µg/mL (Staphylococcus aureus [1]) | OD (Staphylococcus aureus [2]) | zone of inhibition at 50 µg/mL (Staphylococcus aureus [3]) | zone of inhibition at 0.8 µg/mL (Staphylococcus aureus [4]) | OD (Staphylococcus aureus [5]) | zone of inhibition at 50 µg/mL [6] | Activity (Staphylococcus aureus [7]) | zone of inhibition at 0.4 µg/mL (Staphylococcus aureus [8]) | zone of inhibition at 20 µg/mL [9] | MIC99 (Staphylococcus aureus [10]) | MIC99 [11] | MIC99 [12] | zone of inhibition at 0.8 µg/mL [13] | zone of inhibition at 0.2 µg/mL [14] | zone of inhibition at 0.4 µg/mL [15] | zone of inhibition at 0.8 µg/mL [16] | zone of inhibition at 0.4 µg/mL [17] | zone of inhibition at 0.2 µg/mL [18] | Activity (Staphylococcus aureus [19])
CC(C)S(=O)(=O)c1ccc(/C=C/S(=O)(=O)F)cc1 | 6.2 mm | 1.78 | 9 mm | 10.1 mm | 0.6 | 5.2 mm | Active | 8.1 mm | 6.2 mm | 0.808 µg/mL (≈ 2.76 µM) | 41.4 µg/mL (≈ 142 µM) | 41.2 µg/mL (≈ 141 µM) |  |  |  |  |  |  | 
O=S(=O)(F)/C=C/c1cccc(I)c1 |  |  | 12.3 mm |  |  | 8.2 mm |  |  | 8.2 mm | 46 µg/mL (≈ 148 µM) | 0.825 µg/mL (≈ 2.64 µM) | 23.1 µg/mL (≈ 74.2 µM) | 8.1 mm | 0 mm | 7.1 mm | 3.2 mm | 0 mm | 6.1 mm | 
O=S(=O)(F)/C=C/c1ccccc1Br | 3.5 mm | 1.58 | 20.1 mm | 7.2 mm | 0.725 | 11.2 mm |  | 4.4 mm | 14.1 mm | 0.839 µg/mL (≈ 3.16 µM) | 0.809 µg/mL (≈ 3.05 µM) | 25.3 µg/mL (≈ 95.5 µM) | 14.2 mm | 1.1 mm | 11.5 mm | 3.3 mm | 2.2 mm | 10.1 mm | 
O=S(=O)(F)/C=C/c1ccccc1 | 3.5 mm |  | 8.2 mm | 4.5 mm |  | 7.2 mm |  | 4.2 mm | 11.2 mm | 18.2 µg/mL (≈ 97.5 µM) | 15.2 µg/mL (≈ 81.4 µM) | 20.1 µg/mL (≈ 108 µM) | 5.5 mm | 0 mm | 4.2 mm | 3.2 mm | 1.2 mm | 0.1 mm | 
Cc1cc(C)cc(/C=C/S(=O)(=O)F)c1 |  | 1.37 | 7.2 mm |  |  | 3.5 mm |  |  | 9.2 mm | 40.2 µg/mL (≈ 188 µM) | 0.818 µg/mL (≈ 3.82 µM) | 60.2 µg/mL (≈ 281 µM) | 9.8 mm |  | 5.2 mm |  |  | 3.3 mm | Active
O=S(=O)(F)/C=C/c1cccc(O)c1 | 3.5 mm | 1.52 | 12.2 mm | 6.3 mm |  | 4.5 mm |  | 4.1 mm | 7.4 mm | 0.841 µg/mL (≈ 4.16 µM) | 0.83 µg/mL (≈ 4.1 µM) | 58.2 µg/mL (≈ 288 µM) | 7.4 mm |  | 5.3 mm |  |  | 4.2 mm | Active
O=[N+]([O-])c1cccc(/C=C/S(=O)(=O)F)c1 | 5.2 mm | 1.45 | 9.1 mm | 9.7 mm |  | 6.4 mm |  | 6.1 mm | 7.4 mm | 0.843 µg/mL (≈ 3.65 µM) | 0.831 µg/mL (≈ 3.59 µM) | 61.6 µg/mL (≈ 266 µM) | 7.2 mm |  | 6.2 mm |  |  | 5.2 mm | Active
Cc1cccc(/C=C/S(=O)(=O)F)c1 | 4.3 mm |  | 10.1 mm | 6.2 mm |  | 12.2 mm |  | 5.2 mm | 3.5 mm | 0.844 µg/mL (≈ 4.22 µM) | 57.2 µg/mL (≈ 286 µM) | 0.812 µg/mL (≈ 4.06 µM) |  | 6.1 mm |  | 10.3 mm | 8.2 mm |  | 
O=S(=O)(F)/C=C/c1cccc(Br)c1 | 5.1 mm |  | 17.1 mm | 12 mm |  | 8.5 mm |  | 10.1 mm | 4.5 mm | 0.813 µg/mL (≈ 3.07 µM) | 58.2 µg/mL (≈ 219 µM) | 16.1 µg/mL (≈ 60.8 µM) |  | 32 mm |  | 52 mm | 42 mm |  | 
O=C(O)c1cn(C2CC2)c2cc(N3CCNCC3)c(F)cc2c1=O [CIPROFLOXACIN] |  |  |  |  | 0.915 |  |  |  |  |  |  |  |  |  |  |  |  |  | Active
